Source: patent US20210379040A1, “COMBINATION TREATMENT OF LIVER DISORDERS” (Terns Pharmaceuticals, Inc., priority 2020, published 2021)
Where two headings read alike, the source gives them in different places.

Assays:
[1] = Tissue distribution after 2 mg/kg intravenous infusion; assay type: in vivo; settings: SD rats, with 100 μM rifampin
Method: The tested compounds were administered to SD rats (n=3 per compound) by way of 30 minute intravenous infusion at 2 mg/kg. Blood, liver, kidney, and lung tissue samples were collected from the rats to determine a tissue/plasma ratio.

[2] = Clinical study, Second Study (7 days daily oral dosing); settings: for AUC: human, in vivo, po
human hepatocytes = assay: In vitro metabolic stability in cryopreserved hepatocytes (human); assay type: in vitro ADME
Method: (§1) In vitro half-life values were determined and scaled to predict hepatic clearance (CLpred) and hepatic extraction using the well-stirred liver model with no correction for plasma protein as described in Obach et al., The Prediction of Human Pharmacokinetic Parameters from Preclinical and In Vitro Metabolism Data, J. of Pharmacology and Experimental Therapeutics, vol. 283, no. 1, pp. 46-58 (1997).

[3] = Clinical study, First Study (14 days, healthy volunteers); assay type: in vivo; settings: healthy human volunteers, oral daily 5, 75, 200 or 400 mg for 14 days
[4] = Pharmacokinetics assay, rat; assay type: in vivo, Sprague-Dawley (SD) rats; settings: plasma, Sprague-Dawley Rat
Text: (§2) Results are shown in FIG. 1A (IV administration) and FIG. 1B (oral administration), and in Table 2. […] Smaller Vdss in monkeys is correlated with higher plasma protein binding.

[5] = PK/PD profile, single oral dose; assay type: in vivo; settings: cynomolgus monkey, plasma, cynomolgus monkeys; for AUC(0-t): read-out: AUC0-24
Method: Pharmacokinetics data is presented in Table 3, and were determined by non-compartmental analysis.

[6] = Pharmacokinetics assay, monkey; assay type: in vivo, cynomolgus monkeys; settings: plasma, iv, Cynomolgus Monkey, intravenously 0.3 mg/kg
Text: as §2

monkey hepatocytes = assay: In vitro metabolic stability in cryopreserved hepatocytes (monkey); assay type: in vitro ADME; settings: Cynomolgus Monkey
Method: as §1

dog hepatocytes = assay: In vitro metabolic stability in cryopreserved hepatocytes (dog); assay type: in vitro ADME; settings: Beagle Dog
Method: as §1

mouse hepatocytes = assay: In vitro metabolic stability in cryopreserved hepatocytes (mouse); assay type: in vitro ADME
Method: as §1

[7] = Tissue distribution of radiolabeled (14C) compound, oral 5 mg/kg; assay type: in vivo; settings: Long-Evans rats, oral 5 mg/kg (100 μCi/kg), up to 168 hours
Method: Plasma, liver, small intestine, cecum, kidney, lung, heart and skin tissue samples were collected up to 168 hours, and the amount of radioactive material at various time points was measured.

[8] = Multiple once daily dose study: plasma PK and safety; assay type: in vivo, human
Method: 3 groups of 8 healthy participants were randomized to receive multiple once daily (QD) doses of Compound 2 or matching placebo in a 3:1 ratio for 7 days (1 mg and 4 mg) or 14 days (10 mg). Plasma levels of Compound 2 and PD biomarkers (plasma amine oxidase activity and methylamine levels) were determined at pre-dose and various timepoints post-dose. Safety was assessed for up to 14 days after last dose.

[9] = Single-ascending dose clinical trial: plasma PK and safety
Method: SSAO inhibition was determined by measuring relative reductions in plasma H2O2 generation after addition of an exogenous substrate (benzylamine). […] Safety was assessed for 7 (±3) days after dosing.
Plasma PK parameters were determined by non-compartmental analysis. […] Percent change in total amine oxidase activity was determined relative to the corresponding pre-dose (baseline) samples.

plasma SSAO = biological target: T1, plasma SSAO (Homo sapiens, UniProt Q16853); assay: Single-ascending dose clinical trial: plasma amine oxidase activity and methylamine; assay type: in vivo
T1 construct: from tissue; host or cells: plasma of healthy participants
T1 sequence (Q16853 27-763 limits assumed): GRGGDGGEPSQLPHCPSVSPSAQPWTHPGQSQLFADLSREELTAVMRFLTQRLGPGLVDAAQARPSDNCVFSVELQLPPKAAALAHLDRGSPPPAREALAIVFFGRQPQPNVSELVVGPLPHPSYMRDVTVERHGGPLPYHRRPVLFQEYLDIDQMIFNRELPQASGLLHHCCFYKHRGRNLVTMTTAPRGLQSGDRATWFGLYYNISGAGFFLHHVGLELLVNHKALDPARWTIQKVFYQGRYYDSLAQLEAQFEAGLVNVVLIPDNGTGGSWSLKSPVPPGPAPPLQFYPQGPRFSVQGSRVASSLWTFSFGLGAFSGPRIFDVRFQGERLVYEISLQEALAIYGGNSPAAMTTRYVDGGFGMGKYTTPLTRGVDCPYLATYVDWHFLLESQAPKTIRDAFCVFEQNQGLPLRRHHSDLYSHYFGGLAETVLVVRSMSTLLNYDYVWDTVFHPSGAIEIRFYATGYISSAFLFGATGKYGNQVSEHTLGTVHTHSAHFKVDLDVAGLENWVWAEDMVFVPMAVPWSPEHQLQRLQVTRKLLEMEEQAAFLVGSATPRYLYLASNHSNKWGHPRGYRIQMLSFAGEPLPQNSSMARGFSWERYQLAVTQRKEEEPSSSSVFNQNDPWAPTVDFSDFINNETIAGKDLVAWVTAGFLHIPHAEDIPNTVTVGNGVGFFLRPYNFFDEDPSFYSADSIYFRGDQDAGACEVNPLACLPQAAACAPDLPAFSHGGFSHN
Method: Safety was assessed for 7 (±3) days after dosing.
Plasma PK parameters were determined by non-compartmental analysis.
SSAO-specific amine oxidase levels in plasma were determined using a kinetic-based assay essentially as described previously (Schilter et al). Endogenous monoamine oxidases A and B were inhibited by adding pargyline to plasma samples prior to measuring H2O2 generation levels in placebo and active recipients. Maximum inhibition was defined by pre-dose (baseline) samples additionally treated with a high dose of Compound 2 and percent changes in SSAO-specific activity were calculated relative to baseline samples.

**Q.** For `Cn1cc(C(=O)O)c2ccc(N3CCC(OCc4c(-c5c(Cl)cccc5Cl)noc4C4CC4)CC3)cc21` [Compound 1], which “change in distribution to the liver on co-administration with rifampin” value [1] is on record?
**A.** Its value is “does not result in a significant change”.

**Q.** What about the Pruritus ([2]; Compound 1 25 mg oral daily for 7 days) of the same molecule?
**A.** The Pruritus was “No”.

**Q.** And the Pruritus ([2]; Compound 1 75 mg oral daily for 7 days)?
**A.** Its Pruritus is “No”.

**Q.** And the Pruritus ([2]; Compound 1 150 mg oral daily for 7 days)?
**A.** The Pruritus was “No”.

**Q.** And the AUC ([2]; 25 mg)?
**A.** The AUC was 645 ng·h/mL.

**Q.** And the AUC ([2]; 75 mg)?
**A.** The AUC was 1480 ng·h/mL.

**Q.** And the AUC ([2]; 150 mg)?
**A.** Its AUC is 2160 ng·h/mL.

**Q.** What about the Pruritus ([2]; subjects taking the highest doses) of the same molecule?
**A.** The Pruritus was “no pruritus was observed”.

**Q.** And the “Hepatic Extraction” value (human hepatocytes)?
**A.** The value was 67.0 ± 1.73%.

**Q.** And the “In vitro Metabolic CLpred” value (human hepatocytes; well-stirred liver model)?
**A.** Its value is 13.8 ± 3.67 mL/min/kg.

**Q.** And the incidences of pruritus [3]?
**A.** Its incidences of pruritus is “no incidences of pruritus were observed”.

**Q.** What about the clearance ([4]; iv, intravenously 1 mg/kg) of the same molecule?
**A.** Its clearance is 42.5 mL/min/kg.

**Q.** What about the half-life ([4]; iv, intravenously 1 mg/kg, read-out: IV Terminal t1/2 (converted)) of the same molecule?
**A.** Its half-life is 2.45 h.

**Q.** What about the Vd ([4]; iv, intravenously 1 mg/kg, read-out: Vdss) of the same molecule?
**A.** Its Vd is 1.31 L/kg.

**Q.** And the bioavailability ([4]; po, orally 10 mg/kg)?
**A.** The bioavailability was 21%.

**Q.** And the Cmax ([5]; oral 0.3 mg/kg)?
**A.** The Cmax was 58.8 ± 30.2 ng/mL.

**Q.** And the Tmax ([5]; oral 0.3 mg/kg)?
**A.** Its Tmax is 2.17 ± 1.47 h.

**Q.** And the AUC(0-t) ([5]; oral 0.3 mg/kg)?
**A.** Its AUC(0-t) is 196 ± 64 ng·h/mL.

**Q.** And the Cmax ([5]; oral 1 mg/kg)?
**A.** The Cmax was 257 ± 124 ng/mL.

**Q.** And the Tmax ([5]; oral 1 mg/kg)?
**A.** The Tmax was 1.83 ± 1.17 h.

**Q.** What about the AUC(0-t) ([5]; oral 1 mg/kg) of the same molecule?
**A.** Its AUC(0-t) is 1000 ± 419 ng·h/mL.

**Q.** What about the Cmax ([5]; oral 5 mg/kg) of the same molecule?
**A.** The Cmax was 709 ± 458 ng/mL.

**Q.** What about the Tmax ([5]; oral 5 mg/kg) of the same molecule?
**A.** Its Tmax is 2.25 ± 1.47 h.

**Q.** What about the AUC(0-t) ([5]; oral 5 mg/kg) of the same molecule?
**A.** The AUC(0-t) was 2720 ± 1500 ng·h/mL.

**Q.** What about the clearance [6] of the same molecule?
**A.** Its clearance is 5 mL/min/kg.

**Q.** And the half-life ([6]; read-out: IV Terminal t1/2 (converted))?
**A.** The half-life was 1.32 h.

**Q.** What about the Vd ([6]; read-out: Vdss) of the same molecule?
**A.** Its Vd is 0.6 L/kg.

**Q.** And the “Hepatic Extraction” value (monkey hepatocytes)?
**A.** The value was 64.4 ± 0.28%.

**Q.** And the “In vitro Metabolic CLpred” value (monkey hepatocytes; well-stirred liver model)?
**A.** Its value is 28 ± 0.17 mL/min/kg.

**Q.** And the “Hepatic Extraction” value (dog hepatocytes)?
**A.** The value was 71.0 ± 2.49%.

**Q.** And the “In vitro Metabolic CLpred” value (dog hepatocytes; well-stirred liver model)?
**A.** The value was 22 ± 0.83 mL/min/kg.

**Q.** What about the “Hepatic Extraction” value (mouse hepatocytes) of the same molecule?
**A.** Its value is 80.7 ± 1.02%.

**Q.** And the “In vitro Metabolic CLpred” value (mouse hepatocytes; well-stirred liver model)?
**A.** Its value is 72.7 ± 1 mL/min/kg.

**Q.** And the “tissues with the most radioactive material” value [7]?
**A.** Its value is “Liver, small intestine, and cecum had the most radioactive material”.

**Q.** Which “plasma PK exposure increases between dose groups” value ([8]; Day 1, QD 1, 4, 10 mg) does the source give for `COC1CCN(c2ncc(OC/C(=C/F)CN)cn2)CC1` [Compound 2] here?
**A.** Its value is “greater than dose proportional”.

**Q.** What about the half-life versus dose ([8]; QD 1, 4, 10 mg) of the same molecule?
**A.** The half-life versus dose was “increased with dose”.

**Q.** And the “accumulation after multiple QD doses” value ([8]; each dose level)?
**A.** Its value is “significant accumulation”.

**Q.** And the “adverse events or laboratory abnormalities” value ([8]; healthy participants, QD 1 mg and 4 mg for 7 days or 10 mg for 14 days)?
**A.** The value was “No clinically relevant adverse events or laboratory abnormalities were reported”.

**Q.** And the “time to steady state” value ([8]; highest dose cohort (10 mg QD))?
**A.** Its value is 7 days.

**Q.** And the safety and tolerability ([8]; up to 10 mg QD for 14 days)?
**A.** Its safety and tolerability is “safe and well tolerated”.

**Q.** And the “plasma PK exposure increase with dose” value ([9]; between the 3 and 10 mg dose levels, single oral dose)?
**A.** Its value is “greater than dose proportional”.

**Q.** And the tolerability ([9]; doses 1, 3, 6, and 10 mg, single dose)?
**A.** The tolerability was “well tolerated”.

**Q.** And the “adverse events or laboratory abnormalities” value ([9]; healthy humans, single oral dose 1-10 mg)?
**A.** The value was “No clinically relevant adverse events or laboratory abnormalities were reported”.

**Q.** What about the half-life ([9]; male, human, plasma, po, 10 mg) of the same molecule?
**A.** Its half-life is 1 to 3 h.

**Q.** What about the “inhibition of plasma SSAO activity” value (plasma SSAO; 4 hours post-dose, all dose cohorts (1, 3, 6, 10 mg single dose)) of the same molecule?
**A.** The value was “near complete inhibition”.

**Q.** And the “duration of continued suppression of plasma SSAO activity” value (plasma SSAO; after a single dose)?
**A.** The value was “up to 1 week”.

**Q.** What about the plasma methylamine (plasma SSAO; single dose 1, 3, 6, 10 mg) of the same molecule?
**A.** The plasma methylamine was “Dose-dependent increases”.
